{
  "source": "patent US20250205268A1",
  "about": "“TREATMENT OF VIRUSES WITH ANTIVIRAL NUCLEOSIDES” (priority 2021, published 2025)",
  "type_in_all_cases": "in vivo",
  "key": {"SARS-CoV-2 RNA": {"test_system": "SARS-CoV-2 RNA", "assay": "Phase 2a trial: RT-PCR for SARS-CoV-2 RNA in nasopharyngeal swabs (Example 2)"}, "[1]": {"test_system": "infectious SARS-CoV-2 virus"}, "SARS-CoV-2": {"test_system": "SARS-CoV-2", "conditions": "for WHO Clinical Progression Scale, participants in score category 0 / WHO Clinical Progression Scale, participants in score category 1-3 / WHO Clinical Progression Scale, participants in score category 4-5 / WHO Clinical Progression Scale, participants in score category 6-9 / WHO Clinical Progression Scale, participants in score category 10: final MITT; for WHO Clinical Progression Scale, odds ratio (95% CI): proportional odds model"}},
  "note": "Several values for one entry are separate records, joined by “and”; a condition that tells them apart may be missing. Equal values may be shown once. Read-outs that look alike come from different tables or passages of the source.",
  "data": [
    {"smiles": "CC(C)C(=O)OC[C@H]1O[C@@H](n2ccc(NO)nc2=O)[C@H](O)[C@@H]1O", "note": "[Compound A, {(2R,3S,4R,5R)-3,4-dihydroxy-5-[4-(hydroxyimino)-2-oxo-3,4-dihydropyrimidin-1 (2H)-yl]oxolan-2-yl}methyl 2-methylpropanoate]", "values": [
      {"measurement": "Change from baseline in SARS-CoV-2 viral load, least squares mean", "setting": "SARS-CoV-2 RNA; 200 mg, Day 5", "value": "−1.471", "unit": "log10 copies/ml"},
      {"measurement": "Difference in least squares mean viral load change vs placebo", "setting": "SARS-CoV-2 RNA; 200 mg, Day 5", "value": "−0.150", "unit": "log10 copies/ml"},
      {"measurement": "Change from baseline in SARS-CoV-2 viral load, least squares mean", "setting": "SARS-CoV-2 RNA; 200 mg, Day 7", "value": "−2.028", "unit": "log10 copies/ml"},
      {"measurement": "Difference in least squares mean viral load change vs placebo", "setting": "SARS-CoV-2 RNA; 200 mg, Day 7", "value": "−0.076", "unit": "log10 copies/ml"},
      {"measurement": "Change from baseline in SARS-CoV-2 viral load, least squares mean", "setting": "SARS-CoV-2 RNA; 200 mg, Day 14", "value": "−2.884", "unit": "log10 copies/ml"},
      {"measurement": "Difference in least squares mean viral load change vs placebo", "setting": "SARS-CoV-2 RNA; 200 mg, Day 14", "value": "−0.019", "unit": "log10 copies/ml"},
      {"measurement": "Change from baseline in SARS-CoV-2 viral load, least squares mean", "setting": "SARS-CoV-2 RNA; 400 mg, Day 3", "value": "−0.941", "unit": "log10 copies/ml"},
      {"measurement": "Difference in least squares mean viral load change vs placebo", "setting": "SARS-CoV-2 RNA; 400 mg, Day 3", "value": "−0.094", "unit": "log10 copies/ml"},
      {"measurement": "Change from baseline in SARS-CoV-2 viral load, least squares mean", "setting": "SARS-CoV-2 RNA; 400 mg, Day 5", "value": "−1.754", "unit": "log10 copies/ml"},
      {"measurement": "Difference in least squares mean viral load change vs placebo", "setting": "SARS-CoV-2 RNA; 400 mg, Day 5", "value": "−0.434", "unit": "log10 copies/ml"},
      {"measurement": "Change from baseline in SARS-CoV-2 viral load, least squares mean", "setting": "SARS-CoV-2 RNA; 400 mg, Day 7", "value": "−2.263", "unit": "log10 copies/ml"},
      {"measurement": "Difference in least squares mean viral load change vs placebo", "setting": "SARS-CoV-2 RNA; 400 mg, Day 7", "value": "−0.311", "unit": "log10 copies/ml"},
      {"measurement": "Change from baseline in SARS-CoV-2 viral load, least squares mean", "setting": "SARS-CoV-2 RNA; 400 mg, Day 14", "value": "−2.840", "unit": "log10 copies/ml"},
      {"measurement": "Difference in least squares mean viral load change vs placebo", "setting": "SARS-CoV-2 RNA; 400 mg, Day 14", "value": 0.026, "unit": "log10 copies/ml"},
      {"measurement": "Median time to response (SARS-CoV-2 viral RNA negativity)", "setting": "SARS-CoV-2 RNA; 800 mg twice daily 5 days", "value": "14 days and 14.0 days"},
      {"measurement": "Change from baseline in SARS-CoV-2 viral load, least squares mean", "setting": "SARS-CoV-2 RNA; 800 mg, Day 3", "value": "−1.050", "unit": "log10 copies/ml"},
      {"measurement": "Difference in least squares mean viral load change vs placebo", "setting": "SARS-CoV-2 RNA; 800 mg, Day 3", "value": "−0.203", "unit": "log10 copies/ml"},
      {"measurement": "Change from baseline in SARS-CoV-2 viral load, least squares mean", "setting": "SARS-CoV-2 RNA; 800 mg, Day 5", "value": "−1.867", "unit": "log10 copies/ml"},
      {"measurement": "Difference in least squares mean viral load change vs placebo", "setting": "SARS-CoV-2 RNA; 800 mg, Day 5", "value": "−0.547", "unit": "log10 copies/ml"},
      {"measurement": "Change from baseline in SARS-CoV-2 viral load, least squares mean", "setting": "SARS-CoV-2 RNA; 800 mg, Day 7", "value": "−2.485", "unit": "log10 copies/ml"},
      {"measurement": "Difference in least squares mean viral load change vs placebo", "setting": "SARS-CoV-2 RNA; 800 mg, Day 7", "value": "−0.534", "unit": "log10 copies/ml"},
      {"measurement": "Change from baseline in SARS-CoV-2 viral load, least squares mean", "setting": "SARS-CoV-2 RNA; 800 mg, Day 14", "value": "−3.040", "unit": "log10 copies/ml"},
      {"measurement": "Difference in least squares mean viral load change vs placebo", "setting": "SARS-CoV-2 RNA; 800 mg, Day 14", "value": "−0.175", "unit": "log10 copies/ml"},
      {"measurement": "Median time to clearance of viral RNA", "setting": "SARS-CoV-2 RNA; 800 mg, participants seronegative at baseline (sensitivity analysis)", "value": 14, "unit": "days"},
      {"measurement": "Percentage of participants positive for infectious SARS-CoV-2 virus", "setting": "[1]; 200 mg twice daily 5 days, Day 1", "value": "(50.0) %"},
      {"measurement": "Percentage of participants positive for infectious SARS-CoV-2 virus", "setting": "[1]; 200 mg twice daily 5 days, Day 3", "value": "(18.2) %"},
      {"measurement": "Percentage of participants positive for infectious SARS-CoV-2 virus", "setting": "[1]; 200 mg twice daily 5 days, Day 5", "value": "(4.5) %"},
      {"measurement": "Percentage of participants positive for infectious SARS-CoV-2 virus", "setting": "[1]; 400 mg twice daily 5 days, Day 1", "value": "(41.9) %"},
      {"measurement": "Percentage of participants positive for infectious SARS-CoV-2 virus", "setting": "[1]; 400 mg twice daily 5 days, Day 3", "value": "(11.6) %"},
      {"measurement": "Percentage of participants positive for infectious SARS-CoV-2 virus", "setting": "[1]; 800 mg twice daily 5 days, Day 1", "value": "(38.5) %"},
      {"measurement": "WHO Clinical Progression Scale, participants in score category 0", "setting": "SARS-CoV-2; Baseline", "value": "(0.0) %"},
      {"measurement": "WHO Clinical Progression Scale, participants in score category 1-3", "setting": "SARS-CoV-2; Baseline", "value": "(100.0) %"},
      {"measurement": "WHO Clinical Progression Scale, participants in score category 4-5", "setting": "SARS-CoV-2; Baseline", "value": "(0.0) %"},
      {"measurement": "WHO Clinical Progression Scale, participants in score category 6-9", "setting": "SARS-CoV-2; Baseline", "value": "(0.0) %"},
      {"measurement": "WHO Clinical Progression Scale, participants in score category 10", "setting": "SARS-CoV-2; Baseline", "value": "(0.0) %"},
      {"measurement": "WHO Clinical Progression Scale, participants in score category 0", "setting": "SARS-CoV-2; Day 3", "value": "(0.3) %"},
      {"measurement": "WHO Clinical Progression Scale, participants in score category 1-3", "setting": "SARS-CoV-2; Day 3", "value": "(97.7) %"},
      {"measurement": "WHO Clinical Progression Scale, participants in score category 4-5", "setting": "SARS-CoV-2; Day 3", "value": "(1.6) %"},
      {"measurement": "WHO Clinical Progression Scale, participants in score category 6-9", "setting": "SARS-CoV-2; Day 3", "value": "(0.4) %"},
      {"measurement": "WHO Clinical Progression Scale, participants in score category 10", "setting": "SARS-CoV-2; Day 3", "value": "(0.0) %"},
      {"measurement": "WHO Clinical Progression Scale, participants in score category 0", "setting": "SARS-CoV-2; Day 5", "value": "(1.6) %"},
      {"measurement": "WHO Clinical Progression Scale, participants in score category 1-3", "setting": "SARS-CoV-2; Day 5", "value": "(95.1) %"},
      {"measurement": "WHO Clinical Progression Scale, participants in score category 4-5", "setting": "SARS-CoV-2; Day 5", "value": "(2.4) %"},
      {"measurement": "WHO Clinical Progression Scale, participants in score category 6-9", "setting": "SARS-CoV-2; Day 5", "value": "(0.9) %"},
      {"measurement": "WHO Clinical Progression Scale, participants in score category 10", "setting": "SARS-CoV-2; Day 5", "value": "(0.0) %"},
      {"measurement": "WHO Clinical Progression Scale, participants in score category 0", "setting": "SARS-CoV-2; Day 10", "value": "(5.9) %"},
      {"measurement": "WHO Clinical Progression Scale, participants in score category 1-3", "setting": "SARS-CoV-2; Day 10", "value": "(89.0) %"},
      {"measurement": "WHO Clinical Progression Scale, participants in score category 4-5", "setting": "SARS-CoV-2; Day 10", "value": "(4.0) %"},
      {"measurement": "WHO Clinical Progression Scale, participants in score category 6-9", "setting": "SARS-CoV-2; Day 10", "value": "(1.0) %"},
      {"measurement": "WHO Clinical Progression Scale, participants in score category 10", "setting": "SARS-CoV-2; Day 10", "value": "(0.0) %"},
      {"measurement": "WHO Clinical Progression Scale, participants in score category 0", "setting": "SARS-CoV-2; Day 15", "value": "(15.2) %"},
      {"measurement": "WHO Clinical Progression Scale, participants in score category 1-3", "setting": "SARS-CoV-2; Day 15", "value": "(81.9) %"},
      {"measurement": "WHO Clinical Progression Scale, participants in score category 4-5", "setting": "SARS-CoV-2; Day 15", "value": "(2.2) %"},
      {"measurement": "WHO Clinical Progression Scale, participants in score category 6-9", "setting": "SARS-CoV-2; Day 15", "value": "(0.6) %"},
      {"measurement": "WHO Clinical Progression Scale, participants in score category 10", "setting": "SARS-CoV-2; Day 15", "value": "(0.0) %"},
      {"measurement": "WHO Clinical Progression Scale, participants in score category 0", "setting": "SARS-CoV-2; Day 29", "value": "(48.4) %"},
      {"measurement": "WHO Clinical Progression Scale, participants in score category 1-3", "setting": "SARS-CoV-2; Day 29", "value": "(50.2) %"},
      {"measurement": "WHO Clinical Progression Scale, participants in score category 4-5", "setting": "SARS-CoV-2; Day 29", "value": "(0.9) %"},
      {"measurement": "WHO Clinical Progression Scale, participants in score category 6-9", "setting": "SARS-CoV-2; Day 29", "value": "(0.3) %"},
      {"measurement": "WHO Clinical Progression Scale, participants in score category 10", "setting": "SARS-CoV-2; Day 29", "value": "(0.2) %"},
      {"measurement": "WHO Clinical Progression Scale, odds ratio (95% CI)", "setting": "SARS-CoV-2; Day 3", "value": "1.19 (0.62, 2.30)"},
      {"measurement": "WHO Clinical Progression Scale, odds ratio (95% CI)", "setting": "SARS-CoV-2; Day 5", "value": "1.52 (0.96, 2.39)"},
      {"measurement": "WHO Clinical Progression Scale, odds ratio (95% CI)", "setting": "SARS-CoV-2; Day 10", "value": "1.58 (1.14, 2.20)"},
      {"measurement": "WHO Clinical Progression Scale, odds ratio (95% CI)", "setting": "SARS-CoV-2; Day 15", "value": "1.36 (1.03, 1.78)"},
      {"measurement": "WHO Clinical Progression Scale, odds ratio (95% CI)", "setting": "SARS-CoV-2; Day 29", "value": "1.04 (0.84, 1.29)"}
    ]}
  ]
}
